Reference: US20260165323A1, “USE OF STROBILURIN TYPE COMPOUNDS FOR COMBATING PHYTOPATHOGENIC FUNGI CONTAINING AN AMINO ACID SUBSTITUTION F129L IN THE MITOCHONDRIAL CYTOCHROME B PROTEIN CONFERRING RESISTANCE TO QO […]” (priority 2022, published 2026)

Legend:
Format in all cases: in vivo
[1] = system: Phakopsora pachyrhizi containing the amino acid substitution F129L in the mitochondrial cytochrome b protein; test: Use Example 2: protective control of soybean rust on soybeans (PHAKPA P6); conditions: inoculated six days after spraying, % diseased leaf area
Experimental: (§1) The compound was dissolved in a mixture of acetone and/or dimethylsulfoxide and the wetting agent/emulsifier Wettol, which is based on ethoxylated alkylphenoles, in a ratio (volume) solvent-emulsifier of 99 to 1 to give a total volume of 5 ml. Subsequently, water was added to total volume of 100 ml. This stock solution was then diluted with the described solvent-emulsifier-water mixture to the final concentration given in the tables below.
Use Example 2. Protective Control of Soybean Rust on Soybeans Caused by Phakopsora Pachyrhizi (PHAKPA P6)
(§2) Leaves of potted soybean seedlings were sprayed to run-off with the previously described spray solution, containing the concentration of active ingredient as described below. The plants were allowed to air-dry. The trial plants were cultivated for six days in a greenhouse chamber at 23-27° C. and a relative humidity between 60 and 80%. Then the plants were inoculated with spores of Phakopsora pachyrhizi. The strain used contains the amino acid substitution F129L in the mitochondrial cytochrome b protein conferring resistance to Qo inhibitors. To ensure the success the artificial inoculation, the plants were transferred to a humid chamber with a relative humidity of about 95% and 23 to 27° C. for 24 hr. The trial plants were cultivated for up to 14 days in a greenhouse chamber at 23 to 27° C. and a relative humidity between 60 and 80%. The extent of fungal attack on the leaves was visually assessed as % diseased leaf area, the disease level of untreated controls was usually higher than 85%.

[2] = system: Phakopsora pachyrhizi containing the amino acid substitution F129L in the mitochondrial cytochrome b protein; test: Use Example 1: protective control of soybean rust on soybeans (PHAKPA P2); conditions: inoculated 2 days after spraying, % diseased leaf area
Experimental: as §1
Use Example 1. Protective Control of Soybean Rust on Soybeans Caused by Phakopsora pachyrhizi (PHAKPA P2)
as §2, with “active ingredient or their mixture as described” for “active ingredient as described”, “cultivated for 2 days in” for “cultivated for six days in”, “95% and 20 to 24°” for “95% and 23 to 27°”, “20 to 24° C. for” for “23 to 27° C. for”

Puccinia recondita = test: Use Example 4: preventative control of brown rust on wheat (PUCCRT P7); conditions: inoculated seven days after spraying, % diseased leaf area
Experimental: as §1
Use Example 4. Preventative Control of Brown Rust on Wheat Caused by Puccinia recondita (PUCCRT P7)
The first two developed leaves of potted wheat seedling were sprayed to run-off with previously described spray solution, containing the concentration of active ingredient or their mixture as described below. Seven days later the plants were dusted with spores of Puccinia recondita. To ensure the success of the artificial inoculation, the plants were transferred to a humid chamber without light and a relative humidity of 95 to 99% and 20 to 24° C. for 24 h. Then the trial plants were cultivated for 9 to 11 days in a greenhouse chamber at 20 to 24° C. and a relative humidity between 65 and 70%. The extent of fungal attack on the leaves was visually assessed as % diseased leaf area, the disease level of untreated controls was usually between 80 and 100%.

CO/C=C(/C(=O)OC)c1cccc(Cl)c1CO/N=C(\COC)c1ccccc1Cl [compound 15, Methyl-(E)-2-[3-chloro-2-[[(Z)-[1-(2-chlorophenyl)-2-methoxy-ethylidene]amino]oxymethyl]phenyl]-3-methoxy-prop-2-enoate]
% PHAKPA (F129L) Disease level P6 at 4 ppm [1]: 40%
% PHAKPA (F129L) Disease level P6 at 16 ppm [1]: 7%
% PHAKPA (F129L) Disease level P2 at 4 ppm [2]: 30%
% PHAKPA (F129L) Disease level P2 at 16 ppm [2]: 4%

CO/C=C(/C(=O)OC)c1cccc(Cl)c1CO/N=C(\COC1CC1)c1ccc(F)cc1 [compound 60]
% PHAKPA (F129L) Disease level P6 at 4 ppm [1]: 21%
% PHAKPA (F129L) Disease level P6 at 16 ppm [1]: 6%
% PHAKPA (F129L) Disease level P2 at 4 ppm [2]: 21%
% PHAKPA (F129L) Disease level P2 at 16 ppm [2]: 2%

CO/C=C(/C(=O)OC)c1cccc(Cl)c1CO/N=C(\COC1CC1)c1ccccc1 [compound 61]
% PHAKPA (F129L) Disease level P6 at 4 ppm [1]: 16%
% PHAKPA (F129L) Disease level P6 at 16 ppm [1]: 2%
% PHAKPA (F129L) Disease level P2 at 4 ppm [2]: 11%
% PHAKPA (F129L) Disease level P2 at 16 ppm [2]: 0%

CNC(=O)/C(=N/OC)c1cccc(Cl)c1CO/N=C(\COC1CC1)c1ccc(F)cc1 [compound 64]
% PHAKPA (F129L) Disease level P6 at 4 ppm [1]: 45%
% PHAKPA (F129L) Disease level P6 at 16 ppm [1]: 7%
% PHAKPA (F129L) Disease level P2 at 4 ppm [2]: 37%
% PHAKPA (F129L) Disease level P2 at 16 ppm [2]: 7%

CO/C=C(/C(=O)OC)c1cccc(Br)c1CO/N=C(\COC1CC1)c1ccc(F)cc1 [compound 65]
% PHAKPA (F129L) Disease level P6 at 4 ppm [1]: 23%
% PHAKPA (F129L) Disease level P6 at 16 ppm [1]: 2%
% PHAKPA (F129L) Disease level P2 at 4 ppm [2]: 15%
% PHAKPA (F129L) Disease level P2 at 16 ppm [2]: 1%

COC/C(=N\OCc1c(Cl)cccc1/C(=N\OC)C(=O)OC)c1ccc(Cl)c(Cl)c1 [compound 68]
% PUCCRT Disease level P7 at 4 ppm (Puccinia recondita): 40%
% PUCCRT Disease level P7 at 16 ppm (Puccinia recondita): 12%
% PHAKPA (F129L) Disease level P6 at 4 ppm [1]: 45%
% PHAKPA (F129L) Disease level P6 at 16 ppm [1]: 9%
% PHAKPA (F129L) Disease level P2 at 4 ppm [2]: 17%
% PHAKPA (F129L) Disease level P2 at 16 ppm [2]: 2%

COC/C(=N\OCc1c(Cl)cccc1/C(=N\OC)C(=O)OC)c1cc(F)c(F)c(F)c1 [compound 72]
% PUCCRT Disease level P7 at 4 ppm (Puccinia recondita): 60%
% PUCCRT Disease level P7 at 16 ppm (Puccinia recondita): 16%
% PHAKPA (F129L) Disease level P6 at 4 ppm [1]: 48%
% PHAKPA (F129L) Disease level P6 at 16 ppm [1]: 10%
% PHAKPA (F129L) Disease level P2 at 4 ppm [2]: 19%
% PHAKPA (F129L) Disease level P2 at 16 ppm [2]: 1%

CNC(=O)/C(=N/OC)c1cccc(Cl)c1CO/N=C(\COC)c1cccc(Cl)c1Cl [compound 75]
% PUCCRT Disease level P7 at 4 ppm (Puccinia recondita): 67%
% PUCCRT Disease level P7 at 16 ppm (Puccinia recondita): 33%
% PHAKPA (F129L) Disease level P6 at 4 ppm [1]: 25%
% PHAKPA (F129L) Disease level P6 at 16 ppm [1]: 11%
% PHAKPA (F129L) Disease level P2 at 4 ppm [2]: 73%
% PHAKPA (F129L) Disease level P2 at 16 ppm [2]: 24%

COC/C(=N\OCc1c(Cl)cccc1/C(=N\OC)C(=O)OC)c1ccc(F)cc1F [compound 78]
% PUCCRT Disease level P7 at 4 ppm (Puccinia recondita): 42%
% PUCCRT Disease level P7 at 16 ppm (Puccinia recondita): 10%
% PHAKPA (F129L) Disease level P6 at 4 ppm [1]: 45%
% PHAKPA (F129L) Disease level P6 at 16 ppm [1]: 2%
% PHAKPA (F129L) Disease level P2 at 4 ppm [2]: 9%
% PHAKPA (F129L) Disease level P2 at 16 ppm [2]: 0%

CO/C=C(/C(=O)OC)c1cccc(Cl)c1CO/N=C(\COC)c1ccc(Cl)cc1Cl [compound 81]
% PHAKPA (F129L) Disease level P6 at 4 ppm [1]: 35%
% PHAKPA (F129L) Disease level P6 at 16 ppm [1]: 20%
% PHAKPA (F129L) Disease level P2 at 4 ppm [2]: 63%
% PHAKPA (F129L) Disease level P2 at 16 ppm [2]: 21%

COC/C(=N\OCc1c(Cl)cccc1/C(=N\OC)C(=O)OC)c1cc(F)cc(F)c1 [compound 82]
% PUCCRT Disease level P7 at 4 ppm (Puccinia recondita): 57%
% PUCCRT Disease level P7 at 16 ppm (Puccinia recondita): 17%
% PHAKPA (F129L) Disease level P6 at 4 ppm [1]: 57%
% PHAKPA (F129L) Disease level P6 at 16 ppm [1]: 22%
% PHAKPA (F129L) Disease level P2 at 4 ppm [2]: 12%
% PHAKPA (F129L) Disease level P2 at 16 ppm [2]: 0%

CNC(=O)/C(=N/OC)c1cccc(Cl)c1CO/N=C(\COC)c1ccc(Cl)cc1Cl [compound 85]
% PHAKPA (F129L) Disease level P6 at 4 ppm [1]: 65%
% PHAKPA (F129L) Disease level P6 at 16 ppm [1]: 25%
% PHAKPA (F129L) Disease level P2 at 4 ppm [2]: 42%
% PHAKPA (F129L) Disease level P2 at 16 ppm [2]: 37%

COC/C(=N\OCc1c(Cl)cccc1/C(=N\OC)C(=O)OC)c1c(F)cc(Cl)cc1F [compound 89]
% PUCCRT Disease level P7 at 4 ppm (Puccinia recondita): 36%
% PUCCRT Disease level P7 at 16 ppm (Puccinia recondita): 25%
% PHAKPA (F129L) Disease level P6 at 4 ppm [1]: 45%
% PHAKPA (F129L) Disease level P6 at 16 ppm [1]: 13%
% PHAKPA (F129L) Disease level P2 at 4 ppm [2]: 53%
% PHAKPA (F129L) Disease level P2 at 16 ppm [2]: 17%

CNC(=O)/C(=N/OC)c1cccc(Cl)c1CO/N=C(\COC)c1cccc(F)c1F [compound 91]
% PHAKPA (F129L) Disease level P6 at 4 ppm [1]: 17%
% PHAKPA (F129L) Disease level P6 at 16 ppm [1]: 18%
% PHAKPA (F129L) Disease level P2 at 4 ppm [2]: 13%
% PHAKPA (F129L) Disease level P2 at 16 ppm [2]: 15%

COC/C(=N\OCc1c(Cl)cccc1/C(=N\OC)C(=O)OC)c1cc(Cl)ccc1F [compound 103]
% PHAKPA (F129L) Disease level P6 at 4 ppm [1]: 72%
% PHAKPA (F129L) Disease level P6 at 16 ppm [1]: 18%
% PHAKPA (F129L) Disease level P2 at 4 ppm [2]: 72%
% PHAKPA (F129L) Disease level P2 at 16 ppm [2]: 18%

COC/C(=N\OCc1c(Cl)cccc1/C(=N\OC)C(=O)OC)c1ccc(Cl)cc1F [compound 104]
% PHAKPA (F129L) Disease level P6 at 4 ppm [1]: 27%
% PHAKPA (F129L) Disease level P6 at 16 ppm [1]: 9%
% PHAKPA (F129L) Disease level P2 at 4 ppm [2]: 42%
% PHAKPA (F129L) Disease level P2 at 16 ppm [2]: 7%

CNC(=O)/C(=N/OC)c1cccc(Cl)c1CO/N=C(\COC)c1ccc(F)c(F)c1F [compound 108]
% PHAKPA (F129L) Disease level P6 at 4 ppm [1]: 19%
% PHAKPA (F129L) Disease level P6 at 16 ppm [1]: 7%
% PHAKPA (F129L) Disease level P2 at 4 ppm [2]: 21%
% PHAKPA (F129L) Disease level P2 at 16 ppm [2]: 4%

COC/C(=N\OCc1c(Cl)cccc1/C(=N\OC)C(=O)OC)c1ccc(Cl)c(F)c1 [compound 114]
% PHAKPA (F129L) Disease level P6 at 4 ppm [1]: 82%
% PHAKPA (F129L) Disease level P6 at 16 ppm [1]: 30%
% PHAKPA (F129L) Disease level P2 at 4 ppm [2]: 35%
% PHAKPA (F129L) Disease level P2 at 16 ppm [2]: 10%

COC/C(=N\OCc1c(Cl)cccc1/C(=N\OC)C(=O)OC)c1ccccc1C [compound 124]
% PUCCRT Disease level P7 at 4 ppm (Puccinia recondita): 62%
% PUCCRT Disease level P7 at 16 ppm (Puccinia recondita): 22%

COC/C(=N\OCc1c(Cl)cccc1/C(=N\OC)C(=O)OC)c1cccc(C)c1 [compound 126]
% PHAKPA (F129L) Disease level P6 at 4 ppm [1]: 73%
% PHAKPA (F129L) Disease level P6 at 16 ppm [1]: 34%
% PHAKPA (F129L) Disease level P2 at 4 ppm [2]: 71%
% PHAKPA (F129L) Disease level P2 at 16 ppm [2]: 14%

CO/C=C(/C(=O)OC)c1cccc(Cl)c1CO/N=C(/COC)c1ccc(F)cn1 [compound 132, methyl (E)-2-[3-chloro-2-[[(E)-[1-(5-fluoro-2-pyridyl)-2-methoxy-ethylidene]amino]oxymethyl]phenyl]-3-methoxy-prop-2-enoate]
% PHAKPA (F129L) Disease level P6 at 16 ppm [1]: 15%
% PHAKPA (F129L) Disease level P2 at 16 ppm [2]: 33%
